Assay results taken from ChEMBL document CHEMBL4334471, “Discovery of 1,8-disubstituted-[1,2,3]triazolo[4,5-c]quinoline derivatives as a new class of Hippo signaling pathway inhibitors” (Bioorg Med Chem Lett, 2019).

Key:
[1] = species: Homo sapiens; assay: Inhibition of recombinant human full length PI3K p110/p65 assessed as residual activity at 10 uM using phosphatidylinositol-4, 5-bisphosphate as substrate incubated for 40 mins in presence of [gamma33P]ATP by scintillation counting based radiometry assay relative to control
[2] = biological target: Homeodomain-interacting protein kinase 1 (Homo sapiens) (UniProt Q86Z02); assay: Inhibition of human HIPK1 (158 to 555 residues) assessed as residual activity at 10 uM using myelin basic protein as substrate after 40 mins by [gamma-33ATP] radiometric assay relative to control
Sequence of Homeodomain-interacting protein kinase 1 (Homo sapiens) (Q86Z02 whole entry, looked up, the tested form may be a part): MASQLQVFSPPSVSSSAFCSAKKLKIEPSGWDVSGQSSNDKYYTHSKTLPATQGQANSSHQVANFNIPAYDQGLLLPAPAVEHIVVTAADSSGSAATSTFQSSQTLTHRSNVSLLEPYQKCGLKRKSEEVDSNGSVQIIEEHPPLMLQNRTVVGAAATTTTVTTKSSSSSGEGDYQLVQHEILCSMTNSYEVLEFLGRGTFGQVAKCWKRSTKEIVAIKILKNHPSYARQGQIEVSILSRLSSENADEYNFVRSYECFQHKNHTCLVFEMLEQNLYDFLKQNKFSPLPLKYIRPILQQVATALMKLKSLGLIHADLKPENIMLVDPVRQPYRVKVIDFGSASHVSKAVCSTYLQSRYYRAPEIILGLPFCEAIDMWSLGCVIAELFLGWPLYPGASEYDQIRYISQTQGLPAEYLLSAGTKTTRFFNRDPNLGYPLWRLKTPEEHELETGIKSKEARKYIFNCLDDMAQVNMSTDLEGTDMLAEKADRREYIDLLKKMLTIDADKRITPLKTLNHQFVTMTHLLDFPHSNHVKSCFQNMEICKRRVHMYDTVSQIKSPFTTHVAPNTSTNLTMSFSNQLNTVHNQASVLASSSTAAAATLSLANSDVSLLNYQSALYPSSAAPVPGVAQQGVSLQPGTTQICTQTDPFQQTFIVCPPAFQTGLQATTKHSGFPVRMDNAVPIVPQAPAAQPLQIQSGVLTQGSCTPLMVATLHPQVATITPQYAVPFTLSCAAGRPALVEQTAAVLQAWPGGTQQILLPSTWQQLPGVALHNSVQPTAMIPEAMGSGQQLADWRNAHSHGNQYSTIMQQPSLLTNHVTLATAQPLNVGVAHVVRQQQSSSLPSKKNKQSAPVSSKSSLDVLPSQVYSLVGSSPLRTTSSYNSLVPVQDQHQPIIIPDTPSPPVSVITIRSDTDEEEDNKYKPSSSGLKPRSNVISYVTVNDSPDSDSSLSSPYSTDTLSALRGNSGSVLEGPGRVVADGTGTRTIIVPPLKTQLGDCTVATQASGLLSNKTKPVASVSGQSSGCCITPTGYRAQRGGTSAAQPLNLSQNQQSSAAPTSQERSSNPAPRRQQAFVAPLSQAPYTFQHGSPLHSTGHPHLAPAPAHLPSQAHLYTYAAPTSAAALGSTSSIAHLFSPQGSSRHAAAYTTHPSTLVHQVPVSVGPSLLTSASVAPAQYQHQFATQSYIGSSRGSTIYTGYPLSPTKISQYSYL

[3] = system: Receptor tyrosine-protein kinase erbB-2 (Homo sapiens), P04626 [G778D]; assay: Inhibition of recombinant human ERBB2 G778D mutant (676 to end residues) assessed as residual activity at 10 uM using poly(Glu, Tyr) 4:1 as substrate at 40 mins in presence of [gamma-33ATP] by scintillation counting based radiometry assay relative to control
[4] = system: Tyrosine-protein kinase Blk (Homo sapiens), P51451 [UNDEFINED MUTATION]; assay: Inhibition of recombinant full length human BLK M287V mutant assessed as residual activity at 10 uM using poly(Glu, Tyr) 4:1 as substrate incubated for 40 mins in presence of [gamma-33ATP] by scintillation counting based radiometry assay relative to control
Sequence of Tyrosine-protein kinase Blk (Homo sapiens), P51451 [UNDEFINED MUTATION] (P51451 whole entry, looked up, stated change not applied, the tested form may be a part): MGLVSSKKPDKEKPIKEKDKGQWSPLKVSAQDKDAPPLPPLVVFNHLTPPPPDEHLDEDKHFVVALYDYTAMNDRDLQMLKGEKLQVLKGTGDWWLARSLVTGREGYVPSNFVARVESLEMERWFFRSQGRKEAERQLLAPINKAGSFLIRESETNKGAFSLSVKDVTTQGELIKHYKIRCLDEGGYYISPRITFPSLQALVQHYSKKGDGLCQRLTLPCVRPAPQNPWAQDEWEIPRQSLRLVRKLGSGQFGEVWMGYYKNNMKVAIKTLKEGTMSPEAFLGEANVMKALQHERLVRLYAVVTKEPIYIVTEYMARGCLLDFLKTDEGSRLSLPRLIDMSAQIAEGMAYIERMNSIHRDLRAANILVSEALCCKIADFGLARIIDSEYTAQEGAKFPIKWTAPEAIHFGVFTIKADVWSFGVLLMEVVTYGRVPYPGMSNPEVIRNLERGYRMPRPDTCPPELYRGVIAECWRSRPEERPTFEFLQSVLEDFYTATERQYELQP

[5] = system: Fungi; assay: Inhibition of recombinant fungi CK1 (2 to 298 residues) assessed as residual activity at 10 uM using KRRRALS(p)VASLPGL as substrate incubated for 40 mins in presence of [gamma-33ATP] by scintillation counting based radiometry assay relative to control
[6] = biological target: Dual specificity tyrosine-phosphorylation-regulated kinase 3 (Homo sapiens) (UniProt O43781); assay: Inhibition of recombinant human DYRK3 assessed as residual activity at 10 uM using RRRFRPASPLRGPP as substrate at 40 mins in presence of [gamma-33ATP] by scintillation counting based radiometry assay relative to control
Sequence of Dual specificity tyrosine-phosphorylation-regulated kinase 3 (Homo sapiens) (O43781 whole entry): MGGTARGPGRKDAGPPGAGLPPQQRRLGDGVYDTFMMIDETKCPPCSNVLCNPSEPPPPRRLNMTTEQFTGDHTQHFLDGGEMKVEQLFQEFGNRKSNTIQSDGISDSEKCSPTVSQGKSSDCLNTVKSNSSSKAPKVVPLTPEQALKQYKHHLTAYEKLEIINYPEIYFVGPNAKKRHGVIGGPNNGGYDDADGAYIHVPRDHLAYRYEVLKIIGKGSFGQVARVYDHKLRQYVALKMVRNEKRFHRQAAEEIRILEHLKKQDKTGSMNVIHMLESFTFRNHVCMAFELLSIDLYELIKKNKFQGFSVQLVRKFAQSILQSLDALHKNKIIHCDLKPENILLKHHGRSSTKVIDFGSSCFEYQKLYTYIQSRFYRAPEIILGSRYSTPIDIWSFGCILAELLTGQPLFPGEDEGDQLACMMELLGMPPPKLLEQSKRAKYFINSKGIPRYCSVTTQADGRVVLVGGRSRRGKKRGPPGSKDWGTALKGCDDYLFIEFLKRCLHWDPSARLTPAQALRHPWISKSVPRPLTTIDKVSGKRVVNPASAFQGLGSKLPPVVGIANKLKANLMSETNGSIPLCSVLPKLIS

[7] = biological target: Tyrosine-protein kinase TXK (Homo sapiens) (UniProt P42681); assay: Inhibition of recombinant human Txk (256 to end residues) assessed as residual activity at 10 uM using GEEPLYWSFPAKKK as substrate incubated for 40 mins in presence of [gamma33P]ATP by scintillation counting based radiometry assay relative to control
[8] = biological target: Macrophage colony-stimulating factor 1 receptor (Homo sapiens) (UniProt P07333); assay: Inhibition of recombinant human FMS (538 to end residues) assessed as residual activity at 10 uM using KKKSPGEYVNIEF as substrate at 40 mins in presence of [gamma-33ATP] by scintillation counting based radiometry assay relative to control
[9] = biological target: Tyrosine-protein kinase JAK2 (Homo sapiens) (UniProt O60674); assay: Inhibition of human JAK2 (808 to end residues) assessed as residual activity at 10 uM using KTFCGTPEYLAPEVRREPRILSEEEQEMFRDFDYIADWC as substrate after 40 mins by [gamma-33ATP] radiometric assay relative to control
[10] = system: Hepatocyte growth factor receptor (Homo sapiens), P08581 [Y1230D]; assay: Inhibition of recombinant human MET A1209G/V1290L/Y1248D mutant (974 to end residues) assessed as residual activity at 10 uM using KKKGQEEEYVFIE as substrate incubated for 40 mins in presence of [gamma-33ATP by scintillation counting based radiometry assay relative to control
[11] = biological target: G protein-coupled receptor kinase 6 (Homo sapiens) (UniProt P43250); assay: Inhibition of recombinant full length human GRK6 assessed as residual activity at 10 uM using casein as substrate at 40 mins in presence of [gamma-33ATP] by scintillation counting based radiometry assay relative to control
Sequence of G protein-coupled receptor kinase 6 (Homo sapiens) (P43250 whole entry, looked up): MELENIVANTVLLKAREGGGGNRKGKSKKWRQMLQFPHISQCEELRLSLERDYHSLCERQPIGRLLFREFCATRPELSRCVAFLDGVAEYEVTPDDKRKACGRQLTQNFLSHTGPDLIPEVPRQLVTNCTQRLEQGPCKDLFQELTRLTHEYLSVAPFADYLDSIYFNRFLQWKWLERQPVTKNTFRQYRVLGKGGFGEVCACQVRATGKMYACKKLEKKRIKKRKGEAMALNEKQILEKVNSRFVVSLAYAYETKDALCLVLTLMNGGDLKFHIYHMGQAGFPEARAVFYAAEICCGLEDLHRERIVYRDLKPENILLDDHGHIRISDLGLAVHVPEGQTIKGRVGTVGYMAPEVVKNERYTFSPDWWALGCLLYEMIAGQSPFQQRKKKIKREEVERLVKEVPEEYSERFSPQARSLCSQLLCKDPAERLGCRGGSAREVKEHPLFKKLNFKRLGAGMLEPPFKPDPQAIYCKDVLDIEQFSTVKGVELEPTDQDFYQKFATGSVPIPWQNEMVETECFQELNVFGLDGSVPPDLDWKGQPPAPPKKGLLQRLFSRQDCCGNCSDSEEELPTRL

[12] = biological target: Protein kinase C gamma type (Homo sapiens) (UniProt P05129); assay: Inhibition of recombinant full-length human PKCgamma assessed as residual activity at 10 uM using histone H1 as substrate incubated for 40 mins in presence of [gamma33P]ATP by scintillation counting based radiometry assay relative to control
[13] = biological target: Insulin-like growth factor 1 receptor (Homo sapiens) (UniProt P08069); assay: Inhibition of human IGF1R activated (959 to end residues) assessed as residual activity at 10 uM using KKKSPGEYVNIEFG as substrate after 40 mins by [gamma-33ATP] radiometric assay relative to control
[14] = biological target: Serine/threonine-protein kinase MARK2 (Homo sapiens) (UniProt Q7KZI7); assay: Inhibition of recombinant full-length human PAR1Balpha assessed as residual activity at 10 uM using KKKVSRSGLYRSPSMPENLNRPR as substrate measured after 40 mins in presence of [gamma33P]ATP by scintillation counting based radiometry assay relative to control
Sequence of Serine/threonine-protein kinase MARK2 (Homo sapiens) (Q7KZI7 whole entry): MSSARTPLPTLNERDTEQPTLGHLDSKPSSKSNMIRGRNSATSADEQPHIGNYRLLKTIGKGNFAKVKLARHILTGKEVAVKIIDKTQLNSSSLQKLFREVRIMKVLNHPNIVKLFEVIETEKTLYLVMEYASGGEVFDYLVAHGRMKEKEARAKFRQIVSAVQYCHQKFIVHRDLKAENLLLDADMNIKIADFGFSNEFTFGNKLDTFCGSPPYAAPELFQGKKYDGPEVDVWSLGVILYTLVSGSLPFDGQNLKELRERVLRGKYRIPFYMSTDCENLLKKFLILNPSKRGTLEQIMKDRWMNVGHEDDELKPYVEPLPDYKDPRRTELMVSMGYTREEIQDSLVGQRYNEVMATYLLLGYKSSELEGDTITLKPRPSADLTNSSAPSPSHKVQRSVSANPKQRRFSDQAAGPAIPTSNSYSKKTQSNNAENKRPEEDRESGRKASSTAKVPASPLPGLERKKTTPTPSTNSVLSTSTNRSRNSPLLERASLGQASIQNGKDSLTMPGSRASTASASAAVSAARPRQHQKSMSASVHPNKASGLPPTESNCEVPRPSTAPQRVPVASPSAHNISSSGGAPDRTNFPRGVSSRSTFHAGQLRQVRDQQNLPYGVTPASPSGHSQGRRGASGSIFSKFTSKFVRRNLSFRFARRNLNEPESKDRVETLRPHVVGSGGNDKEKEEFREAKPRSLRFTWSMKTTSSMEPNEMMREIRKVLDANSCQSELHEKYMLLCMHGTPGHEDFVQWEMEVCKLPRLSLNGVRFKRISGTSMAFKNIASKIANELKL

[15] = biological target: Tyrosine-protein kinase Blk (Mus musculus) (UniProt P16277); assay: Inhibition of recombinant full length mouse BLK assessed as residual activity at 10 uM using poly(Glu, Tyr) 4:1 as substrate incubated for 40 mins in presence of [gamma-33ATP] by scintillation counting based radiometry assay relative to control
Sequence of Tyrosine-protein kinase Blk (Mus musculus) (P16277 whole entry): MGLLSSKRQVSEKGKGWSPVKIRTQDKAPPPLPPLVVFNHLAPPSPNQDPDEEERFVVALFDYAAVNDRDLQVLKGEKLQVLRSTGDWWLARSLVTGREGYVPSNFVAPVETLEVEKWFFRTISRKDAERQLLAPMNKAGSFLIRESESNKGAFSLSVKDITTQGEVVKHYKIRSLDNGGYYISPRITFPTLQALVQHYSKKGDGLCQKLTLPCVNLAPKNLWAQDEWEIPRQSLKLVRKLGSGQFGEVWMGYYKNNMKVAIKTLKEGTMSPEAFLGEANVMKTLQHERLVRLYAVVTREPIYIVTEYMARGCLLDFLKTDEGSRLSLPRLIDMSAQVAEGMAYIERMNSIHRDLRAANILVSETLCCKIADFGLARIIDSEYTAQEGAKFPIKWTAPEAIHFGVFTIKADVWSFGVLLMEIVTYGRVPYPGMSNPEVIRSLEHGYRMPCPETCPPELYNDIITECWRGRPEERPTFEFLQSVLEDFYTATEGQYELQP

[16] = system: Protein kinase C eta type (Homo sapiens), P24723 [UNDEFINED MUTATION]; assay: Inhibition of recombinant human PKCeta V108L/G109R/L392Q mutant (2 to end residues) assessed as residual activity at 10 uM using ERMRPRKRQGSVRRRV as substrate incubated for 40 mins in presence of [gamma33P]ATP by scintillation counting based radiometry assay relative to control
[17] = system: Serine/threonine-protein kinase Sgk2 (Homo sapiens), Q9HBY8 [S416D]; assay: Inhibition of recombinant human SGK2 S416D mutant (54 to end residues) assessed as residual activity at 10 uM using GRPRTSSFAEGKK as substrate incubated for 40 mins in presence of [gamma33P]ATP by scintillation counting based radiometry assay relative to control
[18] = species: Homo sapiens; assay: Inhibition of recombinant human full length PI3K p110/p85 assessed as residual activity at 10 uM using phosphatidylinositol-4, 5-bisphosphate as substrate measured after 40 mins by fluorescence assay relative to control
[19] = biological target: Serine/threonine-protein kinase Chk1 (Homo sapiens) (UniProt O14757); assay: Inhibition of recombinant full length human CHK1 assessed as residual activity at 10 uM using KKKVSRSGLYRSPSMPENLNRPR as substrate incubated for 40 mins in presence of [gamma-33ATP] by scintillation counting based radiometry assay relative to control
Sequence of Serine/threonine-protein kinase Chk1 (Homo sapiens) (O14757 whole entry): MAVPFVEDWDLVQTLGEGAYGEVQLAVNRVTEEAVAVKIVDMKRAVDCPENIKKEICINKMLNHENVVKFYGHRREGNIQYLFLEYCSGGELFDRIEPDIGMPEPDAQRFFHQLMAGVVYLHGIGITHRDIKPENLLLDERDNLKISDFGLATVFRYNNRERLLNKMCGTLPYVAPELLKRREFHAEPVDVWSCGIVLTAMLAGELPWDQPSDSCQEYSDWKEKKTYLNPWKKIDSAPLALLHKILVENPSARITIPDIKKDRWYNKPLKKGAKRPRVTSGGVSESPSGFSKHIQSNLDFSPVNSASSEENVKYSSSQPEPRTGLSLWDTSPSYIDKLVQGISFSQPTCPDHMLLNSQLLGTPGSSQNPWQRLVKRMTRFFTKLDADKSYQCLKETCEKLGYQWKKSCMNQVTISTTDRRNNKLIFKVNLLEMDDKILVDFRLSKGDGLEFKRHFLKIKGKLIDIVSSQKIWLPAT

Q: `C[C@@H](c1ccccc1)n1nnc2cnc3ccc(-c4cnc5[nH]ccc5c4)cc3c21` was tested. Which Activity [1] did it give?
A: Its Activity is 3%.

Q: And the Activity [2]?
A: Its Activity is 78%.

Q: And the Activity [3]?
A: The Activity was 120%.

Q: What about the Activity [4] of the same compound?
A: The Activity was 8%.

Q: And the Activity [5]?
A: The Activity was 37%.

Q: And the Activity [6]?
A: Its Activity is 79%.

Q: What about the Activity [7] of the same compound?
A: The Activity was 23%.

Q: And the Activity [8]?
A: The Activity was 21%.

Q: And the Activity [9]?
A: Its Activity is 43%.

Q: And the Activity [10]?
A: The Activity was 70%.

Q: And the Activity [11]?
A: Its Activity is 96%.

Q: What about the Activity [12] of the same compound?
A: The Activity was 83%.

Q: And the Activity [13]?
A: Its Activity is 79%.

Q: What about the Activity [14] of the same compound?
A: The Activity was 85%.

Q: What about the Activity [15] of the same compound?
A: Its Activity is 12%.

Q: What about the Activity [16] of the same compound?
A: The Activity was 82%.

Q: And the Activity [17]?
A: Its Activity is 36%.

Q: And the Activity [18]?
A: The Activity was 3 to 9%.

Q: And the Activity [19]?
A: The Activity was 140%.
